Measured values as given in patent US20080275134A1, “Methods for Treatment of Retinal Degenerative Disease” (University of Washington, priority 2005, published 2008).
“Also recorded” adds a separate entry of the source.

Assays:
RPE65 = molecular target: T1, RPE65 (Bos taurus, UniProt Q28175); assay: gel filtration of RPE proteins with anti-RPE65 immunoblot; format: binding, bovine; conditions: RPE65 found in fractions 23-34
T1 construct: RPE microsomes were solubilized with 10 mM DHPC; from tissue; host or cells: bovine RPE microsomes, DHPC extract
T1 sequence (Q28175 whole entry): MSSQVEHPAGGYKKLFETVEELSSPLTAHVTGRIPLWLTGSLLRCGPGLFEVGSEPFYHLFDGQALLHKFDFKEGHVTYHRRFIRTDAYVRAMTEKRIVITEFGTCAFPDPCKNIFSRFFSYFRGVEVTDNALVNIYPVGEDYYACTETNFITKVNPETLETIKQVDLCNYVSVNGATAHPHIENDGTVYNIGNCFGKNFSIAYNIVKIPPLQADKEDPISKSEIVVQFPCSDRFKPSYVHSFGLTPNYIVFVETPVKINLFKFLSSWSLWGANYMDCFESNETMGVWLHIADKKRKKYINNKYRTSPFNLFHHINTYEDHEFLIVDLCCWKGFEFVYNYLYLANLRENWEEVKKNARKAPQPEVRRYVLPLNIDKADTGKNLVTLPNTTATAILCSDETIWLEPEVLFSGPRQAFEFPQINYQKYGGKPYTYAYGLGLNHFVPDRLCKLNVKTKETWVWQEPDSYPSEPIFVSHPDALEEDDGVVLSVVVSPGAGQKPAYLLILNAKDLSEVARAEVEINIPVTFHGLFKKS
Procedure: The specificity of Ret-NH2 was further tested by biochemical assays. […] When the RPE microsomes were solubilized with DHPC, the isomerase activity decreased only slightly. Then [^3H]-Ret-NH2 was added to the RPE extract and loaded on a gel filtration column. Proteins were fractionated and eluted between fractions 18 and 60 (FIG. 3A), while the radioactivity was eluted in fractions 36-38. RPE65 was identified by immunoblotting in fractions 23-34 (FIG. 3B). The most abundant proteins in this fraction were identified by mass spectrometry and include glucose phosphate isomerase, D-glyceraldehyde-3-phosphate dehydrogenase, phosphoglycerate mutase, triose phosphate isomerase, enolase, annexin V, calbindin 2, and LRAT. Identification of less abundant proteins is in progress.
RPE microsomes were solubilized with 10 mM DHPC, incubated with 11,12-di[^3H]-all-trans-Ret-NH2 (1 μM), and loaded on a Superdex 200 column equilibrated with Tris/HCl buffer, pH 7.5, containing 4 mM DHPC. Proteins were eluted with a constant flow rate of 0.4 ml/min. The protein and radioactivity levels of 0.4 ml fractions were examined by SDS-PAGE and scintillation counting (A), and immunoblot with anti-RPE65 and anti-LRAT antibodies (B). The star indicates the fraction associated with maximum radioactivity.

retinol dehydrogenases = assay: direct assay of retinol dehydrogenases present in the RPE; format: biochemical; conditions: direct assays
RXR = molecular target: T2, RXR (Mus musculus, UniProt P28700); assay: HEK-293 cells with DR1-lacZ reporter and mouse RXRA, β-galactosidase activity; format: cell-based; conditions: 48 hours treatment, micromolar concentrations
T2 construct: The RXR-A ORF was then subcloned into pcDNA3.1 Directional TOPO vector; expressed in transfected cells; host or cells: HEK-293, transient transfection with pcDNA3.1 Directional TOPO
T2 sequence (P28700 1-467): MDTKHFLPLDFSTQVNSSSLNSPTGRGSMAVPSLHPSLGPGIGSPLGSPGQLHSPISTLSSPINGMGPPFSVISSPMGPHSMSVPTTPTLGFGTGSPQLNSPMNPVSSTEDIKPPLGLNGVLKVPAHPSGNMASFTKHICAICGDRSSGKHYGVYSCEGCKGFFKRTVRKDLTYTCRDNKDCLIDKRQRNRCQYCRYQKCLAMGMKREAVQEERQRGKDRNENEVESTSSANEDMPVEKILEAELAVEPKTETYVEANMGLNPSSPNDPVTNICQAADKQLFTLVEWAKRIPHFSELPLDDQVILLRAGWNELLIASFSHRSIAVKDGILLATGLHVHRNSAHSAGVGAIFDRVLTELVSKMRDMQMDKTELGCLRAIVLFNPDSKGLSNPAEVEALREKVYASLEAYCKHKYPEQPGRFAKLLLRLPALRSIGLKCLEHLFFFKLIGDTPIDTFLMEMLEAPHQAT

[1] = system: visual function (a-wave and b-wave); assay: single flash ERG responses of treated mice; format: in vivo, mouse
Procedure: A. Chromatographic separation of nonpolar retinoids from WT mouse eyes. Mice were gavaged with all-trans-Ret-NH2 24 hours prior to bleaching for 20 min at 150 cd·m^−2 W in the Ganzfeld chamber. Regeneration of 11-cis-retinal was allowed for 24 hours in the dark, and retinoids were extracted from the eye and separated by normal phase HPLC as described in Materials and Methods. The peaks were identified based on elution time and absorption spectra correspond to the following retinoids: 1, all-trans-retinyl esters; 2,2′, syn- and anti-11-cis-retinal oximes; 3, syn-all-trans-retinal oxime; 4,4′, syn- and anti-9-cis-retinal oximes; 5, all-trans-retinol. B. Changes of 11-cis-retinal oxime levels at increasing doses of all-trans-Ret-NH2 during 5 hours or 24 hours of dark adaptation. Square indicates the level of 11-cis-retinal oximes that was present in mice gavaged with vegetable oil without retinoids just after bleaching, and arrow indicates the increase of visual chromophore during 5 hours of dark adaptation. Triangles correspond to the level of 11-cis-retinal found in the mice gavaged with 50 mg/kg of 13-cis-RA. C and D. Single flash ERG responses of increasing intensity for all-trans-Ret-NH2 treated mice and control mice. Serial responses to increasing flash stimuli were obtained for all-trans-Ret-NH2 treated and control mice for selected intensities (C) and plotted as a function of a-wave and b-wave versus varying light intensities under dark-adapted conditions (D) before bleach and at 5 hours and 24 hours after bleach. The dark-adapted mice were bleached with intense constant illumination (150 cd·m^−2) for 20 min. […] SE bars are shown. […]
The conclusions derived from the analysis of retinoids of Ret-NH2-treated mice were supported by ERG analysis of visual functions. […] Next, the impact of all-trans-Ret-NH2 administration on the visual physiology of wild-type mice was evaluated in vivo with ERGs. […]

Row | SMILES | binding to RPE65 (RPE65) | inhibition of retinol dehydrogenases (retinol dehydrogenases) | activation of transcription through RXR (DR1 elements) (RXR) | dark-adapted ERG a- and b-wave responses after bleach ([1]; 50 mg/kg single dose, 20 min bleach, 5 and 24 hours after, P<0.0001 vs control) | light-adapted (photopic) ERG responses, cone function ([1]; 50 mg/kg single dose, before and 5 and 24 hours after bleach, p>0.1 vs control) | dark-adapted ERG before bleach ([1]; 24 hours after 50 mg/kg gavage)
1 | CC1=C(/C=C/C(C)=C/C=C/C(C)=C/CN)C(C)(C)CCC1 [Ret-NH2, Retinylamine] | does not bind | did not inhibited | – | – | – | –
2 | CC1=C(/C=C/C(C)=C/C=C/C(C)=C/CN)C(C)(C)CCC1 [all-trans-Ret-NH2, all-trans-retinylamine] | – | – | does not activate protein transcription | significantly attenuated | attenuated weakly; also recorded: not affected by all-trans-Ret-NH2 to the same extent as rod function | normal waveforms and responses
